Results taken from patent US10463669B2, “Composition for treating or preventing liver cancer” (Seoul National University R&DB Foundation, priority 2016, dated 2019).

Experiments:
[1] = tested on: telomere length in HCC cell lines (Huh7 and Hep3B); assay: Telomere length (Southern blot, immunoFISH, Flow FISH, quantitative PCR); type: cell-based, human
Procedure: Volume of the hybridization buffer was adjusted to 100 μl per 10^5 cells. Next, each sample was cultured for 10 minutes in a water bath at 85° C. […] Total 15,000 to 20,000 nuclei were analyzed for the each separate culture. Telomere fluorescence intensity of the all nuclei at […] phase of the cell cycle was measured by using BD FACS Calibur flow cytometer (Becton Dickinson, Franklin Lakes, N.J., USA) in which CELLQUEST software is used. The established ImmunoFISH protocol (Plentz R R, et al., Hepatology. 2007; 45: 968-76) was used with slight modifications. The paraffin-embedded section was subjected to de-paraffinization using xylene, and then rehydrated using ethanol gradient. Antigen retrieval was carried out by boiling in 100 mmol/L sodium citrate (pH 6.0) for 10 minutes in a microwave. After permeation of proteinase K (15 μg/mL in PBS [pH 7.4]) for 20 minutes at 37° C., 8-oxo-dG-specific antibody (1:100, Abcam, Cambridge, Mass., USA; ab62623) was subjected to 1% BSA dilution in PBS 0.1% Triton X-100 and cultured overnight at room temperature. After washing, the slide was treated with Alexa 647 secondary antibody for 1 hour. […] After denaturation for 6 minutes at 90° C., the sample was hybridized for 2 hours at dark place. […] After washing, the slide was rinsed with PBS containing DAPI, and then sealed with a DAPI sealing agent (mounting medium) (Vector Laboratories, Burlingame, Calif., USA). Simultaneously, the inventors of the present invention carried out centromere staining as an internal control for telomere staining and 8-oxo-dG staining. […] For quantification of the telomere fluorescence intensity, centromere fluorescence intensity, and 8-oxo-dG fluorescence intensity, the same exposure time was employed. The telomere fluorescence level and 8-oxo-dG fluorescence level of tumor tissues were calculated by division of the fluorescence level in non-tumor tissues corresponding to 5 random fields. The image analysis was carried out by using Image-Pro plus 6.0 software (Media Cybernetics, Inc., Rockville, Md., USA). Telomere length was determined by using the non-radioactive chemical fluorescence TeloTAGGG telomere length assay (Roche; Cat. No. 12 209 136 001) according to the manual. Genomic DNA was separated from HCC cells using GeneJET Genomic DNA Purification Kit (Thermo Scientific; #K0721), and then 4 μg of the genomic DNA was digested for 16 hours at 37° C. with 20 units of […] digested DNA was subjected to 0.8% agarose gel electrophoresis, and then transferred to a positively charged nylon membrane using capillary transfer. The blotted DNA was hybridized for 16 hours at 42° C. with a digoxigenin (DIG)-labeled probe that is specific to the telomere repeat. After that, it was cultured for 30 minutes at room temperature with DIG-specific antibody conjugated to an alkaline phosphatase Based on quantitative PCR analysis using the genomic DNA extracted from cells, relative telomere repeat copy number (T) and single copy number (S) were determined, and the calculation was made like previous method in which T/S ratio is continuously modified (Cawthon R M. Telomere length measurement by a novel monochrome multiplex quantitative PCR method. Nucleic Acids Res. 2009; 37: e21).

[2] = tested on: AKT phosphorylation in THLE-3 cells; assay: AKT phosphorylation, immunoblot assay; type: cell-based, human
Procedure: Medium was exchanged every day, and the aforementioned cells were cultured for 4 days in 300 μmol/L hydrogen peroxide (H2O2) (Sigma Aldrich; H1009). In several experiments, the cells were treated for 1 hour with 5 mmol/L N-acetylcysteine (NAC) (Sigma Aldrich; A7250), 25 μmol/L idelalisib (LC Laboratoties, Woburn, Mass., USA; I-7447), 25 μmol/L perifosine (LC Laboratoties, Woburn, Mass., USA; P-6522), or 30 μmol/L GSK3β inhibitor (GSK3β inhibitor XI) (Santa Cruz; sc-204770) (31) before adding H2O2. Furthermore, sterilized distilled water (pH 7.0) was used as a negative control (i.e., mock treatment).
Total 2×10^5 cells were boiled for 5 minutes in 2×SDS sample buffer (100 mmol/L TrisHCl [pH 6.8], 4% SDS, 0.2% bromophenol blue, 20% glycerol, and 200 mmol/L β-mercaptoethanol), and then subjected to SDS-PAGE and Western blotting. To detect the TERT, the cells were cultured in 2×SDS sample buffer for 15 minutes at 55° C. TERT-specific (1:300, Rockland Immunochemicals, Gilbertsville, Pa., USA; 600-401-252), AKT-specific (1:1000, Cell Signaling Technology; #9272), phospho-AKT-specific (1:2000, Cell Signaling Technology; #4060), GAPDH-specific (1:2000, Santa Cruz Biotechnology; sc-47724), or β-actin-specific (1:2000, Sigma-Aldrich, St. Louis, Mo., USA; A5441) antibody was diluted in 5% skim milk or bovine serum albumin with TBS-Tween 20, cultured overnight at 4° C., washed, and cultured with HRP-conjugated secondary antibody (1:1000, Abcam; ab131368, or ab131366). By using FUSION-SOLO imager (Vilber Lourmat, Marne La Vallee, France), a chemical fluorescence image was obtained.

[3] = tested on: Huh7 cells injected to subcutaneous tissues; assay: In vivo tumorigenicity analysis (xenograft of pre-treated cells); set-up: species or system KSN/Slc nude mouse
Procedure: The animal test was carried out according to the protocol which has been approved by Seoul National University Institutional Animal Care and Use Committee (Approval number: SNU-130225-6). The mouse was kept under usual conditions (i.e., semi-specific pathogen-free state), and allowed to have free access to food and water. For all xenografting studies, 5-week old KSN/Slc nude mouse was used. A mouse with bodyweight of 18 g to 20 g was used for the test. For the xenografting analysis, mock-treated 1×10^5 Huh7, 1×10^5 Huh7 treated only with 300 μmol/L H2O2, and 1×10^5 Huh7 treated with both of 25 μmol/L idelalisib and 300 μmol/L H2O2 were washed, harvested in PBS not containing Ca^2+ or Mg^2+, and subsequently injected in an amount of 0.2 mL to subcutaneous tissues. According to caliper measurement of two vertical diameters of a tumor (i.e., D1 as largest diameter and D2 as smallest diameter), the tumor product was monitored every week. The tumor volume was calculated by […].
Next, an examination was made to see whether or not idelalisib can have in vivo inhibition of tumor growth.

Compound | telomere length reduced by ([1]; 300 μmol/L H2O2-treated HCC cells plus idelalisib, compared to HCC cells treated with H2O2 only) | ROS-mediated increase in telomere length ([1]; H2O2-treated cells) | telomere length ([1]; HCC cells, no H2O2) | basal level AKT phosphorylation ([2]; THLE-3, idelalisib at a concentration of 25 μmol/L) | time without tumor formation ([3]; nude mouse injected with HCC cells treated with both 300 μmol/L H2O2 and 25 μmol/L idelalisib) [days] | telomere length increased by ([1]; HCC cells treated with 300 μmol/L H2O2, compared to control HCC cells not exposed to H2O2) | AKT phosphorylation level ([2]; THLE-3 cells after H2O2 treatment) | latency time till tumor development ([3]; nude mouse injected with 1×10^5 HCC cells treated with H2O2) [days]
CC[C@H](Nc1ncnc2nc[nH]c12)c1nc2cccc(F)c2c(=O)n1-c1ccccc1 [idelalisib, 5-fluoro-3-phenyl-2-[(1S)-1-(7H-purin-6-ylamino)propyl]-4(3H)-quinazolinone] | 40-45% | almost completely inhibited | reduced | not reduced | > 70 | – | – | –
OO [H2O2, hydrogen peroxide] | – | – | – | – | – | 25%-30% | no change | 28
